pIC50: −log10 of the molar value.
Tested on: Plasmodium berghei
Assay: Luciferase/luciferin-expressing antifolate-resistant parasites were used to infect a culture of HepG2 cells that were pre-incubated with compounds. Infected hepatocytes emit light due to the luciferase reaction. Assay results are presented as the percent inhibition of light emission compared to control. […]
Assay type: functional
Conditions: sporozoite; for IC90: read-out: LUCIFERASE INFECTION ASSAY - IC90
[1] = read-out: LUCIFERASE INFECTION ASSAY - IC50

Structure (SMILES) | IC90 [µM] | other results
Clc1ccccc1Nc1cc2c(cn1)ncn2Cc1ccco1 | > 10 | pIC50 (HEPG2TOX_HILL_SLOPE 2.43, HEPG2TOX_R_SQUARED 0.709, PBLUC_HILL_SLOPE 4.59, PBLUC_R_SQUARED 0.452, read-out: LUCIFERASE INFECTION ASSAY - IC50): 5.12
COc1ccc(N2C(=N)C(c3nc4ccccc4s3)C(=O)C2c2ccccc2)cc1 (centres undefined) | 4.06 | pIC50 (PBLUC_HILL_SLOPE 428, PBLUC_R_SQUARED 0.387, read-out: LUCIFERASE INFECTION ASSAY - IC50): 5.39
Cc1ccc(-n2c(C)cc(C(=O)CSc3n[nH]c(=O)n3C3CC3)c2C)cc1C | > 10 | pIC50 [1]: < 5.00
CNC(=O)c1cccc(-c2ccc3ncc(-c4ccc(CO)cc4)n3n2)c1 | > 10 | pIC50 (HEPG2TOX_HILL_SLOPE 13.1, HEPG2TOX_R_SQUARED 0.574, PBLUC_HILL_SLOPE 1.06, PBLUC_R_SQUARED 0.813, read-out: LUCIFERASE INFECTION ASSAY - IC50): 5.86
O=C1c2ccccc2C(=O)c2sccc21 [THIOPHENONAPHTHOQUINONE] | > 15.4 | pIC50 (PBLUC_HILL_SLOPE 0.947, PBLUC_R_SQUARED 0.583, read-out: LUCIFERASE INFECTION ASSAY - IC50): 5.55
CCn1c(SCC(=O)N2N=C(c3ccco3)CC2c2ccco2)nc2ccsc2c1=O (centres undefined) | > 10 | pIC50 (FFLUC_HILL_SLOPE 1.6, FFLUC_R_SQUARED 0.281, read-out: LUCIFERASE INFECTION ASSAY - IC50): < 5.00
Cc1ccc2nc(-c3ccc(NC(=S)NCC(C)(C)CN(C)C)cc3)sc2c1 | > 10 | pIC50 (PBLUC_HILL_SLOPE 12.9, PBLUC_R_SQUARED 0.101, read-out: LUCIFERASE INFECTION ASSAY - IC50): 5.04
CCOc1ccc(NC(=O)c2ccc(F)cc2)cc1S(=O)(=O)N(C)C | > 10 | pIC50 (PBLUC_HILL_SLOPE 2.43, PBLUC_R_SQUARED 0.406, read-out: LUCIFERASE INFECTION ASSAY - IC50): 5.07
O=S(=O)(NCc1nnc2n1-c1ccccc1CC2)c1ccc(C2CCCCC2)cc1 | > 10 | pIC50 [1]: < 5.00
COc1ccc(C(N)c2csc(NC(=O)NC(c3ccccc3)c3ccccc3)n2)cc1 (centres undefined) | 3.36 | pIC50 (PBLUC_HILL_SLOPE 167, PBLUC_R_SQUARED 0.12, read-out: LUCIFERASE INFECTION ASSAY - IC50): 5.48
COc1ccc(-c2csc(N/C=C3/C(=O)NC(=O)c4ccccc43)n2)cc1OC | 8.15 | pIC50 (HEPG2TOX_HILL_SLOPE 3.11, HEPG2TOX_R_SQUARED 0.952, PBLUC_HILL_SLOPE 3, PBLUC_R_SQUARED 0.801, read-out: LUCIFERASE INFECTION ASSAY - IC50): 5.41
O=C(Cc1ccccc1)OC1(C(F)(F)F)C(=O)Nc2c1ccc1ccccc21 (centres undefined) | > 10 | pIC50 [1]: < 5.00
OCc1ccc(-c2cnc3ccc(-c4ccc(F)cc4)nn23)cc1 | 5.21 | pIC50 (HEPG2TOX_HILL_SLOPE 1.97, HEPG2TOX_R_SQUARED 0.914, PBLUC_HILL_SLOPE 1.12, PBLUC_R_SQUARED 0.781, read-out: LUCIFERASE INFECTION ASSAY - IC50): 6.13
COc1ccc(OC)c(CCNc2nc3cnc(-c4cccs4)cc3n2C)c1 | 3.85 | pIC50 (HEPG2TOX_HILL_SLOPE 3.25, HEPG2TOX_R_SQUARED 0.886, PBLUC_HILL_SLOPE 11.1, PBLUC_R_SQUARED 0.592, read-out: LUCIFERASE INFECTION ASSAY - IC50): 5.50
Cc1cccc(-c2cn3c(-c4ccc(N(C)C)cc4)cnc3cn2)c1C | 1.28 | pIC50 (HEPG2TOX_HILL_SLOPE 0.565, HEPG2TOX_R_SQUARED 0.75, PBLUC_HILL_SLOPE 0.899, PBLUC_R_SQUARED 0.883, read-out: LUCIFERASE INFECTION ASSAY - IC50): 6.95
N#Cc1ccnc(N2CCN(C(=O)c3cccc(-n4cccc4)c3)CC2)c1 | 2.2 | pIC50 (HEPG2TOX_HILL_SLOPE 1.62, HEPG2TOX_R_SQUARED 0.96, PBLUC_HILL_SLOPE 2.46, PBLUC_R_SQUARED 0.842, read-out: LUCIFERASE INFECTION ASSAY - IC50): 6.05
COc1ccc2c(C)nc(Nc3nc(O)c4ccccc4n3)nc2c1 | 3.1 | pIC50 (HEPG2TOX_HILL_SLOPE 241, HEPG2TOX_R_SQUARED 0.475, PBLUC_HILL_SLOPE 24.4, PBLUC_R_SQUARED 0.363, read-out: LUCIFERASE INFECTION ASSAY - IC50): 5.55
O=C(NC1CCN(c2nccc(C(F)(F)F)n2)CC1)c1ccco1 | > 9.7 | pIC50 (PBLUC_HILL_SLOPE 0.897, PBLUC_R_SQUARED 0.83, read-out: LUCIFERASE INFECTION ASSAY - IC50): 5.59
OC(c1cn2cc(-c3ccccc3)nc2s1)(C(F)(F)F)C(F)(F)F | 1.73 | pIC50 (PBLUC_HILL_SLOPE 1.37, PBLUC_R_SQUARED 0.781, read-out: LUCIFERASE INFECTION ASSAY - IC50): 6.46
O=C(c1c[nH]c(-c2ccnc(N3CCCC3)c2)c1)c1ccccc1O | 7.71 | pIC50 (HEPG2TOX_HILL_SLOPE 2.58, 1.58, HEPG2TOX_R_SQUARED 0.907, 0.987, PBLUC_HILL_SLOPE 3.48, 1.53, PBLUC_R_SQUARED 0.289, 0.786, read-out: LUCIFERASE INFECTION ASSAY - IC50): 5.51
CC(NCC(=O)N1c2ccc(S(N)(=O)=O)cc2CC1C)C1CC2CCC1C2 (centres undefined) | 7.51 | pIC50 (FFLUC_HILL_SLOPE 16.6, FFLUC_R_SQUARED 0.154, PBLUC_HILL_SLOPE 1.1, PBLUC_R_SQUARED 0.764, read-out: LUCIFERASE INFECTION ASSAY - IC50): 5.99

Structure (SMILES) | IC90 [µM] | other results
Cc1cc(I)ccc1N1C(=O)C=CC1=O | > 10.5 | pIC50 [1]: 5.26
CCOC(=O)c1c(-c2ccc(OC)cc2)csc1NC(=O)CSc1nc(C)nc2sc3c(c12)CCC3 | > 10 | pIC50 (FFLUC_HILL_SLOPE 0.459, FFLUC_R_SQUARED 0.138, read-out: LUCIFERASE INFECTION ASSAY - IC50): < 5.00
Oc1cc2c(cc1CN1CCN(Cc3ccc4c(c3)OCO4)CC1)CCC2 | > 10 | pIC50 [1]: < 5.00
OC(COc1cccc(C(F)(F)F)c1)CN1CCN(c2nc(-c3ccccc3)ns2)CC1 (centres undefined) | > 7.1 | pIC50 (PBLUC_HILL_SLOPE 15.4, PBLUC_R_SQUARED 0.391, read-out: LUCIFERASE INFECTION ASSAY - IC50): 5.17
Cc1ccc2nc(NC(=O)COCc3ccccc3)c(C(=O)NC3CCCCC3)n2c1 | > 7.85 | pIC50 [1]: < 5.11
S=C1CCc2ccccc2N1Cc1ccccc1 | > 13 | pIC50 (PBLUC_HILL_SLOPE 2.45, PBLUC_R_SQUARED 0.245, read-out: LUCIFERASE INFECTION ASSAY - IC50): < 4.89
O=C(NNc1ccccc1)c1cccs1 | 7.33 | pIC50 (HEPG2TOX_HILL_SLOPE 91.6, HEPG2TOX_R_SQUARED 0.623, PBLUC_HILL_SLOPE 5.23, PBLUC_R_SQUARED 0.266, read-out: LUCIFERASE INFECTION ASSAY - IC50): 5.32
CCN(CC)c1ccc(NC(=O)c2c(-c3c(Cl)cccc3Cl)noc2C)c(N(CC)CC)n1 | > 6.73 | pIC50 [1]: < 5.17
S=C(NCc1ccccc1)N/N=C1/CCCCC1C1CCCCC1 (centres undefined) | > 10 | pIC50 [1]: < 5.00
OCc1ccccc1-c1cn2c(-c3ccc4c(c3)OCO4)cnc2cn1 | > 9.56 | pIC50 (HEPG2TOX_HILL_SLOPE 2.34, HEPG2TOX_R_SQUARED 0.695, PBLUC_HILL_SLOPE 2.89, PBLUC_R_SQUARED 0.35, read-out: LUCIFERASE INFECTION ASSAY - IC50): 5.09
Cc1cccc(C)c1N1C(=O)C=CC1=O | > 16.4 | pIC50 (PBLUC_HILL_SLOPE 2.64, PBLUC_R_SQUARED 0.435, read-out: LUCIFERASE INFECTION ASSAY - IC50): < 4.79
CCOC(=O)c1sc(SCc2ccccc2)c2c1CC(c1ccccc1)CC2=O (centres undefined) | > 7.81 | pIC50 (FFLUC_HILL_SLOPE 10.5, FFLUC_R_SQUARED 0.686, PBLUC_HILL_SLOPE 0.804, PBLUC_R_SQUARED 0.242, read-out: LUCIFERASE INFECTION ASSAY - IC50): < 5.11
CCCCCCN(C(=O)Cn1ccsc1=N)c1nc(-c2ccccc2)cs1 | > 10 | pIC50 (FFLUC_HILL_SLOPE 258, FFLUC_R_SQUARED 0.634, read-out: LUCIFERASE INFECTION ASSAY - IC50): < 5.00
Cc1cccc(-c2nc3c(NCc4ccccc4)nccc3[nH]2)c1 | 9.18 | pIC50 (PBLUC_HILL_SLOPE 2.29, PBLUC_R_SQUARED 0.394, read-out: LUCIFERASE INFECTION ASSAY - IC50): 5.45
CC(C)=CC(=O)Nc1scc(-c2ccccc2)c1C(=O)OCC(=O)Nc1cc(C)on1 | > 10 | pIC50 [1]: < 5.00
COc1ccc(/C=C2\CCCC3C2=NN(C(=O)Cn2cc(C(F)(F)F)ccc2=O)C3c2ccc(OC)cc2)cc1 (centres undefined) | 8.1 | pIC50 (PBLUC_HILL_SLOPE 4.26, PBLUC_R_SQUARED 0.126, read-out: LUCIFERASE INFECTION ASSAY - IC50): 5.32
CCNC(=O)C1CCCN(Cc2ccc3ccccc3c2Br)CC1 (centres undefined) | 3.91 | pIC50 (PBLUC_HILL_SLOPE 11.4, PBLUC_R_SQUARED 0.606, read-out: LUCIFERASE INFECTION ASSAY - IC50): 5.49
O=C(Nc1nc2c(s1)CCCC2)c1ccc(Nc2ccccc2)c([N+](=O)[O-])c1 | > 10 | pIC50 [1]: < 5.00
O=C(NC1CCN(Cc2ccccc2)CC1)c1oc2ccccc2c1COc1ccccc1 | > 10 | pIC50 (PBLUC_HILL_SLOPE 25.1, PBLUC_R_SQUARED 0.225, read-out: LUCIFERASE INFECTION ASSAY - IC50): < 5.00
Cc1onc(-c2ccc(Cl)cc2Cl)c1-c1csc(Nc2ccc(Cl)cc2)n1 | > 7.56 | pIC50 (FFLUC_HILL_SLOPE 2.37, FFLUC_R_SQUARED 0.46, PBLUC_HILL_SLOPE 2.86, PBLUC_R_SQUARED 0.233, read-out: LUCIFERASE INFECTION ASSAY - IC50): 5.19
COc1ccc(C2c3ccc4ccccc4c3OC(=N)C2C#N)cc1 (centres undefined) | > 10 | pIC50 [1]: < 5.00
